US6489302B1, “Saccharide conjugates” (Deutches Krebsforschungszentrum Stiftung Des Offentlichen …, priority 1995, dated 2002)

How the values were obtained:
[1] = Whole-body autoradiography of the 14C-labeled conjugate in rats after i.v. injection (organ distribution); assay type: in vivo, rat
Experimental: (§1) This conjugate was labeled with ^14C according to common methods and used for the following treatment of rats.
(§2) The rats used were female Sprague-Dawley rats (SD rats; obtainable from Charles River Wiga, Sulzfeld, Germany) and male Copenhagen rats (obtainable from Harlan Sprague Dawley, Ind., U.S.A.).
(§3) Groups of 5 healthy SD rats were given i.v. injections of 315 mg/kg β-D-Glc-IMP and 56.2 mg/kg of β-D-Glc-IMP, respectively. 5 of the tumor-bearing Copenhagen rats were given 315 mg/kg of β-D-Glc-IMP. The radioactive dose per injection was about 20 μCi. One animal of every group was killed with CO2 10 minutes, 1 hours, 2 hours, 8 hours and 24 hours, respectively, after the administration of the injection. The tissues of the rats were prepared for a common microtome preparation and the sections were subjected to autoradiography as described by Ullberg, S., (1977), in: Alvefeldt, O. (ed.) Special issue on whole-body autoradiography. Science Tools, Bromma, Sweden, p. 2).

[2] = system: Dunning prostate tumor tissue; assay: Whole-body autoradiography of the 14C-labeled conjugate in tumor-bearing Copenhagen rats; assay type: in vivo, rat; details: Copenhagen rats with transplanted Dunning prostate tumor, 315 mg/kg i.v.
Excerpt: as §1, §2
Fresh pieces (2×2 mm) of Dunning prostate tumor tissue were transplanted into the Copenhagen rats. The tumors were allowed to grow for about one week until they were well palpable but not yet necrotic.
as §3

[3] = Applicant's finding: side-effects; details: as compared to cyclophosphoramide and isophosphoramide
tumor = assay: Applicant's finding: anti-tumor properties

Question: What does the source list for `O=P(NCCCl)(NCCCl)OC1OC(CO)C(O)C(O)C1O` [β-D-Glc-IMP, β-D-Glucosylisophosphoramide]?
Answer: accumulation in organs, particularly the liver, kidneys, thymus and thyroid gland ([1]; 10 minutes after i.v. injection, 315 mg/kg or 56.2 mg/kg): accumulated in organs; presence in central nervous system, including the brain ([1]; 8 hours after i.v. injection): contained the conjugate; accumulation in tumor tissue [2]: strong accumulation; side-effects [3]: extremely low side-effects; anti-tumor properties (tumor): good anti-tumor properties
